Our source for the IC50 values is patent US20230096028A1, “BICYCLIC HETEROCYCLYL COMPOUNDS AND USES THEREOF” (Revolution Medicines, Inc., priority 2019, published 2023).

pIC50: −log10 of the molar value. Where two headings read alike, the source gives them in different places.

For assay [1], the system named is PC-9 cells (EGFR Ex19Del). Briefly: Potency Assay: pERK (SOS1 pERK IC50 Assay, AlphaLISA SureFire Ultra p-ERK1/2). The note with it: Homo sapiens, read-out: SOS1 pERK IC50. In kind it is cell-based. The method, then:
The purpose of this assay is to measure the ability of test compounds to inhibit SOS1 function in cells. SOS1 activates RAS proteins by catalyzing the conversion of RAS GDP to RAS GTP in response to receptor tyrosine kinase activation. […] The procedure described below measures the level of cellular pERK in response to test compounds in PC-9 cells (EGFR Ex19Del).
PC-9 cells were grown and maintained using media and procedures recommended by the ATCC. On the day prior to compound addition, cells were plated in 384-well cell culture plates (40 μL/well) and grown overnight in a 37° C., 5% CO2 incubator. Test compounds were prepared in 10, 3-fold dilutions in DMSO, with a top concentration of 10 mM. On the day of the assay, 40 nL of test compound was added to each well of cell culture plate using an Echo550 liquid handler (LabCyte). Concentrations of test compound were tested in duplicate with highest test concentration being 10 μM. After compound addition, cells were incubated for 1 hour at 37° C., 5% CO2. Following incubation, culture medium was removed and cells were washed once with phosphate buffered saline.
Cellular pERK level was determined using the AlphaLISA SureFire Ultra p-ERK1/2 Assay Kit (PerkinElmer). Cells were lysed in 25 μL lysis buffer, with shaking at 600 RPM at room temperature for 15 minutes. Lysate (10 μL) was transferred to a 384-well Opti-plate (PerkinElmer) and 5 μL acceptor mix was added. The plate was centrifuged at 1000 RPM for 1 minute, and incubated in the dark for 2 hours. Following this incubation, 5 μL of donor mix was added, the plate was sealed and centrifuged at 1000 RPM for 1 minute, and the mixture was incubated for 2 hours at room temperature. Signal was read on an Envision plate reader (PerkinElmer) using standard AlphaLISA settings. Analysis of raw data was carried out in Excel (Microsoft) and Prism (GraphPad). Signal was plotted vs. the decadal logarithm of compound concentration, and IC50 was determined by fitting a 4-parameter sigmoidal concentration response model.

Assay [2] has as its target T1, SOS1 catalytic domain (residues 564-1049) (Homo sapiens, UniProt Q07889).
T1 sequence (Q07889 564-1049): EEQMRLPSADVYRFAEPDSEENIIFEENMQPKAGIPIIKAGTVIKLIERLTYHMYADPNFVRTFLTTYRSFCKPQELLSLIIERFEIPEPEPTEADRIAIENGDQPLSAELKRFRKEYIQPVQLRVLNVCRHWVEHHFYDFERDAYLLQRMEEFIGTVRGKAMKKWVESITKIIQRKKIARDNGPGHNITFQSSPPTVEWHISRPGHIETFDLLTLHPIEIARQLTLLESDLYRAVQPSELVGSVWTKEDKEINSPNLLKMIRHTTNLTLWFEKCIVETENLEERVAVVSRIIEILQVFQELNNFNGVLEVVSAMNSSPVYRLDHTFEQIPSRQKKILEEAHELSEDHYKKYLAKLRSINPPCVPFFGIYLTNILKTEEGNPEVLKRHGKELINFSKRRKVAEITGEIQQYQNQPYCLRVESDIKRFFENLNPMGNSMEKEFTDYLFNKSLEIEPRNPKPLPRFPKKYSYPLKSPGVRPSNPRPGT
Briefly: Mode of Action Assay: inhibition of SOS1 nucleotide exchange activity (SOS1 TR-FRET IC50 Assay).
Protocol: The purpose of this assay was to characterize the inhibitory activity of compounds on SOS1 nucleotide exchange of KRAS. Data was reported as IC50 values based on the TR-FRET signal.
Note—the following protocol describes a procedure for monitoring the inhibition of SOS1 nucleotide exchange activity of wild-type KRAS in response to a compound of the invention.
The SOS1/compound mixture was incubated at room temperature with constant mixing on an orbital shaker for 20 minutes to allow the reaction to reach equilibrium. […] This mixture was prepared immediately before addition to the SOS1/compound mixture to prevent intrinsic nucleotide exchange. Then 5 μL of the pre-incubated SOS1/compound mixture and 7.5 μL of the KRAS mixture were added sequentially in a 384-well low volume black round bottom plate and incubated at room temperature with constant shaking for 30 minutes. Time-resolved fluorescence was measured on a PerkinElmer Envision plate reader.
Three replicates were performed for each compound. Data were normalized by the following: (Positive control−Sample signal)/(Positive control−negative control)*100. The data were fit using a four-parameter logistic fit.

The mark [3] stands for this setting: PC-9 cells (EGFR Ex19Del), 1 hour incubation, AlphaLISA p-ERK1/2.

Take `C[C@@H](Nc1nc(Cl)nc2c1CN(C(=O)N1CCc3ncccc31)C2)c1cccc(C(F)(F)F)c1` [Example 371]: the negative-log IC50 (pIC50) in assay [1] (setting [3]) and in assay [2] was greater than 6.00 each time.

As to `C[C@@H](Nc1nc(Cl)nc2c1CN(C(=O)C13COCC(CO1)C3)C2)c1cc(N)cc(C(F)(F)F)c1` (stereo partly shown) [Example 273], the pIC50 in assay [1] (setting [3]) and in assay [2] was greater than 6.00 in each case.

For `COC1CN([C@@H]2CCc3ncnc(N[C@H](C)c4cccc(C(F)F)c4F)c3C2)C1` [Example 443], the negative logarithm of the IC50 (pIC50) in assay [1] (setting [3]) and in assay [2] was less than 6.00 in each case.

For the molecule `CO[C@H]1C[C@H](C(=O)N2CCc3nc(Cl)nc(N[C@H](C)c4cc(N)cc(C(F)(F)F)c4)c3C2)C1` [Example 190], the pIC50 in assay [1] (setting [3]) and in assay [2] was less than 6.00 in each case.

In the case of `C[C@@H](Nc1ncnc2c1CC(N1CCOCC1)C(=O)N2C)c1cc(N)cc(C(F)(F)F)c1` (stereo partly drawn) [Example 502, 4-{[(1R)-1-[3-amino-5-(trifluoromethyl)phenyl]ethyl]amino}-8-methyl-6-(morpholin-4-yl)-5H,6H,7H,8H-pyrido[2,3-d]pyrimidin-7-one], the negative logarithm of the IC50 (pIC50) is less than 6.00 in assay [1] (setting [3]) and greater than 6.00 in assay [2].

Take `C[C@@H](Nc1nc(Cl)nc2c1CN(C(=O)C1CC13CCOCC3)CC2)c1cc(N)cc(C(F)(F)F)c1` (stereo partly shown) [Example 197]: the pIC50 in assay [1] (setting [3]) and in assay [2] was less than 6.00 each time.

For `CC(Nc1nc(Cl)nc2c1CN(C(=O)N1CCOCC1)C2)c1cccc(C(F)(F)F)c1Cl` (stereo not shown) [Example 498], the pIC50 in assay [1] (setting [3]) was greater than 6.00; in assay [2], less than 6.00.

`CC(CO)c1cccc(C(C)Nc2nc(Cl)nc3c2CN(C(=O)N2CCOCC2)C3)c1` (stereo not shown) [Example 500, 2-[3-(1-{[2-Chloro-6-(morpholine-4-carbonyl)-5H,6H,7H-pyrrolo[3,4-d]pyrimidin-4-yl]amino}ethyl)phenyl]propan-1-ol]: the pIC50 in assay [1] (setting [3]) was less than 6.00; in assay [2] it was greater than 6.00.

For `COc1cccc(C(=O)N2CCc3nc(Cl)nc(N[C@H](C)c4cc(N)cc(C(F)(F)F)c4)c3C2)n1` [Example 242], the figures for the negative-log IC50 (pIC50) in assay [1] (setting [3]) and in assay [2] were less than 6.00 and greater than 6.00, respectively.

As for `CC(C)OC1(C(=O)N2CCc3nc(Cl)nc(N[C@H](C)c4cc(N)cc(C(F)(F)F)c4)c3C2)CCOC1` (stereo partly shown) [Example 195], the negative logarithm of the IC50 (pIC50) in assay [1] (setting [3]) and in assay [2] was less than 6.00 throughout.

Consider `CC(Nc1nc(Cl)nc2c1CN(C(=O)N1CCOCC1)C2)c1cccc(S(F)(F)(F)(F)F)c1` (stereo not shown) [Example 462, [2-chloro-4-[1-[3-(pentafluoro-sulfanyl)phenyl]ethylamino]-5,7-dihydropyrrolo[3,4-d]pyrimidin-6-yl]-morpholino-methanone], for which the negative logarithm of the IC50 (pIC50) in assay [1] (setting [3]) and in assay [2] was less than 6.00 throughout.

For the molecule `C[C@@H](Nc1nc(O)nc2c1CN(C(=O)N1CCOCC1)C2)c1cc(N)cc(C(F)(F)F)c1` [Example 55], the negative-log IC50 (pIC50) in assay [1] (setting [3]) is less than 6.00; in assay [2] it was greater than 6.00.

In the case of `C[C@@H](Nc1nc(Cl)nc2c1C[C@H](N1CCOCC1)CC2)c1cccc(C(F)F)c1F` [Example 441], the negative-log IC50 (pIC50) is less than 6.00 in assay [1] (setting [3]) and greater than 6.00 in assay [2].

`C[C@@H](Nc1nc(Cl)nc2c1CN(C(=O)N1CCOCC1)C2)c1ccc2cc[nH]c2c1` [Example 495]: the negative-log IC50 (pIC50) in assay [1] (setting [3]) and in assay [2] was less than 6.00 in each case.

Turning to `C[C@@H](Nc1nc(Cl)nc2c1CN(C(=O)c1cc(N3CCOCC3)nc(N3CCOCC3)n1)CC2)c1cc(N)cc(C(F)(F)F)c1` [Example 230], the negative logarithm of the IC50 (pIC50) in assay [1] (setting [3]) and in assay [2] was less than 6.00 in each case.

As for `C[C@@H](Nc1nc(Cl)nc2c1CN(C(=O)C1(CO)CC1)CC2)c1cc(N)cc(C(F)(F)F)c1` [Example 206], the negative-log IC50 (pIC50) in assay [1] (setting [3]) and in assay [2] was less than 6.00 throughout.

Regarding `C[C@@H](Nc1nc(Cl)nc2c1CN(C(=O)N1CCOc3cccnc31)C2)c1cccc(C(F)(F)F)c1` [Example 368], the negative logarithm of the IC50 (pIC50) in assay [1] (setting [3]) and in assay [2] was greater than 6.00 in each case.

`C[C@@H](Nc1nc(Cl)nc2c1CN(C(=O)N1CCOCC1)C2)c1cccc(NC2CC2)c1` [Example 520, 2-chloro-N-[(1R)-1-[3-(cyclopropylamino)phenyl]ethyl]-6-(morpholine-4-carbonyl)-5H,6H,7H-pyrrolo[3,4-d]pyrimidin-4-amine]: the negative logarithm of the IC50 (pIC50) was less than 6.00 in assay [1] (PC-9, 1 h) and less than 6.00 in assay [2].

For the molecule `C[C@@H](Nc1nc(Cl)nc2c1CN(C(=O)C1CCC1)CC2)c1cc(N)cc(C(F)(F)F)c1` [Example 209], the negative-log IC50 (pIC50) in assay [1] (setting [3]) and in assay [2] was less than 6.00 throughout.

As to `C[C@@H](Nc1nc(Cl)nc2c1CN(C(=O)C13CC(C)(C1)OC31COC1)CC2)c1cc(N)cc(C(F)(F)F)c1` [Example 210], the pIC50 in assay [1] (setting [3]) and in assay [2] was less than 6.00 each time.

`CC(Nc1nc(Cl)nc2c1CN(C(=O)N1CCOCC1)C2)c1ccc(-c2ccccc2)s1` (stereo not shown) [Example 532, [2-chloro-4-[1-(5-phenyl-2-thienyl)ethylamino]-5,7-dihydropyrrolo[3,4-d]pyrimidin-6-yl]-morpholino-methanone]: the pIC50 in assay [1] (PC-9, 1 h) was less than 6.00; in assay [2], less than 6.00.

Turning to `COC1COCCC1CC(=O)N1Cc2nc(Cl)nc(N[C@H](C)c3cc(N)cc(C(F)(F)F)c3)c2C1` (stereo partly shown) [Example 258], the pIC50 in assay [1] (setting [3]) and in assay [2] was greater than 6.00 each time.

Regarding `C[C@@H](Nc1nc(Cl)nc2c1CN(C(=O)[C@@H]1COC[C@@H]1N)C2)c1cccc(C(F)F)c1F` [Example 308], the pIC50 in assay [1] (setting [3]) was less than 6.00; in assay [2], greater than 6.00.

Turning to `C[C@@H](Nc1nc(Cl)nc2c1CN(C(=O)N1CCOC(c3cccnc3)C1)C2)c1cc(N)cc(C(F)(F)F)c1` (stereo partly shown) [Example 151], the negative-log IC50 (pIC50) in assay [1] (setting [3]) and in assay [2] was greater than 6.00 throughout.

For `COC12CCC(C(=O)N3CCc4nc(Cl)nc(N[C@H](C)c5cc(N)cc(C(F)(F)F)c5)c4C3)(CC1)C2` [Example 196], the pIC50 in assay [1] (setting [3]) and in assay [2] was less than 6.00 each time.

With `COC1(C(=O)N2CCc3nc(Cl)nc(N[C@H](C)c4cc(N)cc(C(F)(F)F)c4)c3C2)CCC1` [Example 203], the pIC50 in assay [1] (setting [3]) and in assay [2] was less than 6.00 throughout.

For the molecule `C[C@@H](Nc1nc(Cl)nc2c1CN(C(=O)c1ccc3c(n1)OCCO3)CC2)c1cc(N)cc(C(F)(F)F)c1` [Example 249], the pIC50 in assay [1] (setting [3]) and in assay [2] was less than 6.00 each time.

As for `Cc1nc2c(c(N[C@H](C)c3cc(N)cc(C(F)(F)F)c3)n1)CN(CC1CCOC1)CC2` (stereo partly drawn) [Example 56, N-[(1R)-1-[3-amino-5-(trifluoromethyl)phenyl]ethyl]-2-methyl-6-(tetrahydrofuran-3-ylmethyl)-7,8-dihydro-5H-pyrido[4,3-d]pyrimidin-4-amine], the pIC50 in assay [1] (setting [3]) is less than 6.00; in assay [2], greater than 6.00.

For `C[C@@H](Nc1nc(Cl)nc2c1CN(C(=O)C13CC(C1)C3)CC2)c1cc(N)cc(C(F)(F)F)c1` [Example 211], the pIC50 in assay [1] (setting [3]) and in assay [2] was less than 6.00 in each case.

As for `COC(F)(F)c1cccc([C@@H](C)Nc2nc(Cl)nc3c2CN(C(=O)N2CCOCC2)C3)c1` [Example 475, 2-chloro-N-[(1R)-1-{3-[difluoro(methoxy)methyl]phenyl}ethyl]-6-(morpholine-4-carbonyl)-5H,6H,7H-pyrrolo[3,4-d]pyrimidin-4-amine], the negative logarithm of the IC50 (pIC50) in assay [1] (setting [3]) and in assay [2] was less than 6.00 each time.

As for `Cc1nc2c(c(N[C@H](C)c3cc(N)cc(C(F)(F)F)c3)n1)CN(CC1CCOC1)C2` (stereo partly drawn) [Example 111, N-[(1R)-1-[3-amino-5-(trifluoromethyl)phenyl]ethyl]-2-methyl-6-(tetrahydrofuran-3-ylmethyl)-5,7-dihydropyrrolo[3,4-d]pyrimidin-4-amine], the pIC50 in assay [1] (setting [3]) and in assay [2] was less than 6.00 each time.

Turning to `C[C@@H](Nc1nc(Cl)nc2c1CN(C(=O)C1CNC1)C2)c1cc(N)cc(C(F)(F)F)c1` [Example 268], the pIC50 in assay [1] (setting [3]) was less than 6.00; in assay [2] it was greater than 6.00.
